Values of other authors, collected in patent US10155776B2, “Method for selective detection and estimation of histidine and cystein” (Council of Scientific and Industrial Research, priority 2014, dated 2018).

Compound | pKa value of the thiol group in the side chain
N[C@@H](CCC(=O)N[C@@H](CS)C(=O)NCC(=O)O)C(=O)O [glutathione] | 9.20
N[C@@H](CCS)C(=O)O [homocysteine] | 8.87
